Calls of active or inactive are those of the source.
Experiments:
[1] = microbe, parasite or virus in culture; type: functional; details: Mycobacterium tuberculosis
[2] = reduction of Shn3 3'UTR-driven luciferase in osteoblasts – cell-based, Clone20 osteoblasts, firefly luciferase, cherry-picked, dose response (AID 624132); type: functional;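 also: firefly luciferase luminescence from reporter carrying the Shn3 3'UTR in osteoblasts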
[3] = Shn3 3'UTR reporter signal decrease – cell-based, Clone20 osteoblasts, firefly luciferase, cherry-pick, set 2, Schnurri-3 inhibitor project, dose response (AID 720490); type: functional;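 also: actives lower the luminescence signal as inhibitors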
[4] = target: T1, Heat shock factor protein 1 (Mus musculus, UniProt P38532); experiment: enhancement of HSF1-driven luciferase signal – cell-based, NIH3T3, luminescence, dose retest, confirmation (AID 435004); type: functional;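 also: stress induced by proteasome inhibitor MG132 added 30 min after compound; luciferase reporter driven by HSF1 response element in NIH3T3 cells; actives raise luminescence as potentiators of the MG132 stress response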
T1 sequence (P38532 whole entry): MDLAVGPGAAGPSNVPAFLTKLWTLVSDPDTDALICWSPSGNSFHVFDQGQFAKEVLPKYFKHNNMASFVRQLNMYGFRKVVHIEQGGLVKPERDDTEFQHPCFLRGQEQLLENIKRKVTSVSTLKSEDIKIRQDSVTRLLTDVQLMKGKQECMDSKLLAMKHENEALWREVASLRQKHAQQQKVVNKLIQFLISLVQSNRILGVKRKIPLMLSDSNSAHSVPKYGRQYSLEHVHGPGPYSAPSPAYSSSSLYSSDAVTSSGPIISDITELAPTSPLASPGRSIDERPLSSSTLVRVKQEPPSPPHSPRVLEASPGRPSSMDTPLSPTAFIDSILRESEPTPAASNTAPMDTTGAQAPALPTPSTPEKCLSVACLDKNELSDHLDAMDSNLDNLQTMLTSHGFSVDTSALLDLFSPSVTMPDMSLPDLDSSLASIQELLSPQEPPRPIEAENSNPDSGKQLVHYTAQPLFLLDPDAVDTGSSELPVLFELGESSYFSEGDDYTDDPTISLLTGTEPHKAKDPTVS

[5] = target: Mitogen-activated protein kinase 10 (Homo sapiens, UniProt P53779); experiment: Dose response biochemical screening assay for inhibitors of c-Jun N-Terminal Kinase 3 (JNK3). [Related pubchem assays: 746 ]
Major prion protein = Major prion protein (Homo sapiens, UniProt P04156); type: functional, cell-based
Streptokinase A = target: T2, Streptokinase A (Streptococcus pyogenes serotype M1, UniProt P10520); experiment: viability-normalized secreted streptokinase activity reduction – plasminogen activation absorbance, OD405, dose response (AID 1914); type: functional, Streptococcus pyogenes M1 GAS;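 also: secreted streptokinase activity via plasminogen activation per viability signal from cell pellet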
T2 sequence (P10520 whole entry): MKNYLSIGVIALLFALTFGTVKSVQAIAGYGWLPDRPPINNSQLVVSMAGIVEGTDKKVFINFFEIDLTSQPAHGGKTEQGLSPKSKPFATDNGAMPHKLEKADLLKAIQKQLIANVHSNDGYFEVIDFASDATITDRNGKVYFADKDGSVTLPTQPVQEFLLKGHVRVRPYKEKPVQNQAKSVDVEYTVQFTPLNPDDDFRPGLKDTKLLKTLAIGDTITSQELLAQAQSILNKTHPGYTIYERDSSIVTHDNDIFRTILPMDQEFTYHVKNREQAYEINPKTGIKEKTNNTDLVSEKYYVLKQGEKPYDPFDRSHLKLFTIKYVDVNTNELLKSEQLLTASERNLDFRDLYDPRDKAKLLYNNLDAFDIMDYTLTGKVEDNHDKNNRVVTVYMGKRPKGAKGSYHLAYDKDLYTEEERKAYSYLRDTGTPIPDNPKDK

[6] = target: T3, Trace amine-associated receptor 1 (Homo sapiens, UniProt Q96RJ0); experiment: Counterscreen for antagonists of the human trace amine associated receptor 1 (hTAAR1): Fluorescence-based cell-based high throughput dose response assay to identify TAAR1 Agonists.; type: functional
T3 sequence (Q96RJ0 whole entry): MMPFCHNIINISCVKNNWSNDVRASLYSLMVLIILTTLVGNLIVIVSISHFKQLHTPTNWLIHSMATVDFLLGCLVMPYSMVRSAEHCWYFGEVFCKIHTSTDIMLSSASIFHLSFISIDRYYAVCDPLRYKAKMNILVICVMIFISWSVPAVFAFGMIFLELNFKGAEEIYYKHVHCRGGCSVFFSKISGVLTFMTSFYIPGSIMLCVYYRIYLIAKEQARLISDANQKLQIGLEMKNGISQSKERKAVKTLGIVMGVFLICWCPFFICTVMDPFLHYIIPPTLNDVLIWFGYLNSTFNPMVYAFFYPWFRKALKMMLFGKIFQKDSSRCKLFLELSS

Streptococcus = experiment: GAS UMAA2166 growth inhibition – luminescence, BacTiterGlo, counter-screen for streptokinase expression inhibitor project, dose response (AID 1915); type: functional, organism-based;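 also: potency for reduction of bacterial viability or growth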
[7] = tested on: Streptococcus sp. 'group A'; experiment: Streptococcus pyogenes SK(-)GAS viability under kanamycin – luminescence, BacTiterGlo, confirmation, counter-screen for streptokinase expression inhibitor project, dose response (AID 1900); type: functional, organism-based
[8] = target: T3, Trace amine-associated receptor 1; experiment: Fluorescence-based cell-based high throughput dose response assay to identify antagonists of the human trace amine associated receptor 1 (TAAR1).; type: functional
[9] = Counterscreen for […] of the human trace amine associated receptor 1 (TAAR1): Fluorescence-based cell-based high throughput dose response assay to identify nonselective Ga16 agonists.; type: functional
[10] = Counterscreen for antagonists of the human trace amine associated receptor 1 (hTAAR1): Fluorescence-based cell-based high throughput dose response assay to identify nonselective Ga16 antagonists.; type: functional
H9c2 = experiment: cells; type: functional, cell-based; details: Rattus norvegicus, H9c2, Myocardium;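 also: confirmatory concentration-response retest of ultra-high-throughput screening hits for modulation of myocardial damage; cell death induced by hydrogen peroxide oxidative stress; compound pretreatment for 60 min then peroxide exposure for 2 h; potency is for protecting the cells against peroxide damage rather than for killing them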
[11] = Luminescence-based cell-based high throughput dose response assay to identify activators of the DAF-12 from the parasite S. stercoralis (ssDAF-12).; type: functional
[12] = MITF Orthogonal Assay: SK-MEL-5 CTG Assay Measured in Cell-Based System Using Plate Reader - 2084-02_Inhibitor_Dose_DryPowder_Activity_Set7.; type: functional
[13] = MITF: Counter assay: A375 proliferation Measured in Cell-Based System Using Plate Reader - 2084-03_Inhibitor_Dose_DryPowder_Activity_Set8.; type: functional; details: A-375
[14] = inhibitors of TRPM1-promoter reporter in SK-MEL-5 – cell-based, luciferase, dry powder, set 8, MITF inhibitor project, dose response (AID 624430); type: functional
[15] = viability loss in A549 lung cancer cells – cell-based, cherry-picks, […], cytotoxicity control, dose response (AID 1053119); type: functional
[16] = viability loss in HepG2 hepatoma cells – cell-based, cherry-picks, set 5, cytotoxicity control, dose response (AID 1053118); type: functional
[17] = viability loss in HEK293 kidney cells – cell-based, cherry-picks, set 5, cytotoxicity control, dose response (AID 1053117); type: functional
[18] = blockers of FN fibrillogenesis by fibroblasts – AH1F cells, Alexa488-FN fluorescence, cherry-picks, dose response (AID 1035475); type: functional, cell-based
HEK293 = experiment: viability loss in HEK293T cells – cell-based, ATP luminescence, cherry-pick samples, cytotoxicity control, dose response (AID 687005); type: functional; details: Homo sapiens;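 also: cells exposed to compound for 48 hours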
[19] = HEK293 Cytotoxicity Assay Measured in Cell-Based System Using Plate Reader - 7071-01_Inhibitor_Dose_CherryPick_Activity_Set2.; type: functional
Paired box protein Pax-8 = Paired box protein Pax-8 (Homo sapiens, UniProt Q06710); experiment: PAX8 transcriptional activity inhibition in RMG-I – RMG-I cells, luciferase, cherry-pick, dose response (AID 687027); type: functional, cell-based;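 also: luciferase reporter driven by Pax8 target thyroperoxidase promoter measured by SteadyGlo luminescence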
[20] = inhibitors acting on PAX2 in cells – cell-based, plate reader, dry powder samples, selectivity assay for PAX8 inhibitor project, dose response (AID 743048); type: functional;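 also: HEK293 cells carrying a WT1 promoter luciferase reporter driven by expressed Pax2; potency is for inhibition of Pax2 driven reporter signal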
[21] = PAX8-dependent cell viability loss – plate reader, dry powder, dose response (AID 743049); type: functional, cell-based
[22] = target: Metabotropic glutamate receptor 3 (Rattus norvegicus, UniProt P31422); experiment: inhibitors of rat mGlu3 Galpha15 signaling – TREx293 cells, calcium flux, mGlu3 NAM project, dose response (AID 651840); type: functional
Protein Wnt-3a = Protein Wnt-3a (Mus musculus, UniProt P27467); experiment: SAR analysis of small molecule antagonists of Gli-SUFU in a Wnt3a luminescent reporter assay.; type: functional
[23] = target: Kappa-type opioid receptor (Homo sapiens, UniProt P41145); experiment: kappa opioid receptor antagonism potency – cell-based, fluorescence, dose response, late-stage follow-up (AID 652032); type: functional
[24] = target: Potassium channel subfamily K member 9 (Homo sapiens, UniProt Q9NPC2); experiment: KCNK9 flux blockade, concentration-response – cell-based, FluxOR thallium flux, selectivity assay for TASK1 inhibitor project, SAR follow-up (AID 652211); type: functional;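 also: potency is for inhibitors of the channel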
[25] = target: Potassium channel subfamily K member 3 (Homo sapiens, UniProt O14649); experiment: inhibition of human KCNK3 channel flux – CHO cells, FluxOR thallium flux, SAR follow-up (AID 652212); type: functional
[26] = liver cell line viability loss – HepG2, luminescence plate reader, powder samples, set 2, cytotoxicity control, dose response (AID 651860); type: functional, cell-based
[27] = target: Endoplasmic reticulum aminopeptidase 1 (Homo sapiens, UniProt Q9NZ08); experiment: inhibition of human ERAP1 enzyme activity – biochemical, cherry-pick, set 2, plate reader, dose response (AID 743314)
[28] = target: Potassium channel subfamily K member 3 (Rattus norvegicus, UniProt O54912); experiment: SAR analysis for the identification of selective inhibitors of the two-pore domain potassium channel TASK1(KCNK3):Automated Electrophysiology.; type: functional
[29] = Late stage assay provider results from the probe development effort to identify selective inhibitors of heat shock protein 90 (HSP90): Absorbance-based cell proliferation assay in SKBR3 cells.; type: functional; details: SK-BR-3
[30] = Late stage assay provider results from the probe development effort to identify selective inhibitors of heat shock protein 90 (HSP90): Absorbance-based cell proliferation assay in MCF7 cells.; type: functional

**Q.** With O=C(c1nnc(O)c2ccccc12)N1CCN(C2c3ccccc3-c3ccccc32)CC1 as the compound, how does the CC50 [1] read?
**A.** The CC50 was > 40 µM (active).

**Q.** And the AC50 [2]?
**A.** The AC50 was 7.69 µM (active).

**Q.** What about the AC50 [3] of the same compound?
**A.** Its AC50 is 10.7 µM (active).

**Q.** Which results are given for CCCc1nc(SCC(=O)Nc2cc(C)on2)c2ccccc2n1?
**A.** EC50 [4]: 31.6 µM (active); IC50 [5]: 83.5 µM (not active); IC50 (cells): > 138 µM (inactive); IC50 (Major prion protein): 1.01 µM (active)

**Q.** Which results are given for COc1cccc(-c2nn(-c3ccccc3)cc2C(=O)Nc2nccs2)c1?
**A.** EC50 (Streptokinase A): 35.9 µM (active); EC50 [6]: > 29.9 µM (inactive); EC50 (Streptococcus): > 150 µM (not active); EC50 [7]: 14.9 µM (active); IC50 [8]: 4.72 µM (active); EC50 [9]: > 29.9 µM (inactive); IC50 [10]: > 29.9 µM (inactive); IC50 (H9c2): 7.3 µM (active)

**Q.** Which IC50 [11] does the source give for COc1ccc(S(=O)(=O)Cc2ccc(C(=O)NCCCN3CCc4ccccc4C3)o2)cc1 here?
**A.** Its IC50 is > 67.5 µM (inactive).

**Q.** For CN(C1=CC(=O)c2ccccc2C1=O)c1ccccc1, which AC50 [12] is on record?
**A.** The AC50 was 2.32 µM (active).

**Q.** What about the AC50 [13] of the same compound?
**A.** The AC50 was > 70 µM (inactive).

**Q.** And the AC50 [14]?
**A.** Its AC50 is 16.2 µM (active).

**Q.** For COc1ccc(S(=O)(=O)N2CCCCC2c2cc(C(=O)Nc3ccc4c(c3)OCO4)no2)cc1 (centres undefined), which AC50 [15] is on record?
**A.** The AC50 was 23.9 µM (active).

**Q.** And the AC50 [16]?
**A.** Its AC50 is 15.4 µM (active).

**Q.** What about the AC50 [17] of the same compound?
**A.** Its AC50 is 11.4 µM (active).

**Q.** And the AC50 [18]?
**A.** The AC50 was 32.6 µM (active).

**Q.** With COc1ccc(S(=O)(=O)N[C@@H]2C=C[C@@H](CC(=O)N3CCC(Cc4ccccc4)CC3)O[C@H]2CO)cc1 as the compound, how does the AC50 (HEK293) read?
**A.** Its AC50 is 19.9 µM (active).

**Q.** And the AC50 [19]?
**A.** The AC50 was 19.9 µM (active).

**Q.** Which results are given for C[C@H](CO)N1C[C@H](C)[C@@H](CN(C)Cc2ccc(-c3ccccc3)cc2)Oc2ccc(NC(=O)C3CC3)cc2CC1=O?
**A.** AC50 (Paired box protein Pax-8): 26.1 µM (active); AC50 [20]: > 70 µM (inactive); AC50 [21]: > 70 µM (inactive)

**Q.** Which IC50 [22] does the source give for COc1ccc(C#Cc2ccc(C(=O)N3CC4CCC(O)C4C3)cc2)cc1 (centres undefined) here?
**A.** Its IC50 is 3.5 µM.

**Q.** With COc1cc(OC)cc(C(=O)Nc2cc(Nc3cccc(Cl)c3)ncn2)c1 as the compound, how does the IC50 (Protein Wnt-3a) read?
**A.** The IC50 was > 21.8 µM (inactive).

**Q.** For COC(=O)c1cc(Br)cnc1N1CCC(Nc2ccccc2)CC1, which IC50 [23] is on record?
**A.** The IC50 was 17.5 µM (inactive).

**Q.** For CCOc1ccccc1NC(=O)c1cccc(NC(=O)c2ccccc2C)c1, which IC50 [24] is on record?
**A.** Its IC50 is 4.29 µM (active).

**Q.** And the IC50 [25]?
**A.** The IC50 was 0.14 µM (active).

**Q.** Which AC50 [26] does the source give for O=C(O)[C@H]1CCCC[C@H]1C(=O)N1CCc2ccccc2C1CCN1C(=O)c2ccccc2C1=O (some centres undefined) here?
**A.** Its AC50 is > 52 µM (inactive).

**Q.** With C[C@H](CO)N1C[C@H](C)[C@H](CN(C)Cc2ccc(C(=O)O)cc2)Oc2ccc(NC(=O)Nc3cccc4ccccc34)cc2CC1=O as the compound, how does the AC50 [27] read?
**A.** The AC50 was 21.1 µM (active).

**Q.** For CCOc1ccccc1NC(=O)c1cccc(NC(=O)c2ccc(Cl)cc2)c1, which IC50 [25] is on record?
**A.** Its IC50 is 0.139 µM (active).

**Q.** And the IC50 [28]?
**A.** The IC50 was 7.24 µM (active).

**Q.** What does the source list for CC(=O)c1ccc(NC(=O)c2coc(=O)c(Br)c2)cc1?
**A.** IC50 [29]: 8.4 µM (active); IC50 [30]: 10.7 µM (inactive)
